Results reported in ChEMBL document CHEMBL1201862, “PubChem BioAssay data set” (2004).
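1) Cells in 96-well plates. 2) Compound, 48 h, 5 concentrations. 3) Linear interpolation between surrounding doses. 4) Unreached endpoint = highest concentration. Here, GI50 denotes the concentration required for 50% inhibition of growth.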 Activity calls are given as the source filed them. Rule as the data show it: active = GI50 up to about 1.1 µM and inactive = higher.

Legend:
Test in all cases: NCI tumour cell line growth inhibition, 48 h
[1] = tested on: NCI-H226
[2] = tested on: SK-MEL-2
[3] = tested on: SNB-19
[4] = tested on: NCI-H460
[5] = tested on: NCI/ADR-RES
[6] = tested on: OVCAR-5
[7] = tested on: SN12C
[8] = tested on: RPMI-8226
[9] = tested on: SK-OV-3
[10] = tested on: NCI-H522
[11] = tested on: KM12
[12] = tested on: K562
[13] = tested on: HT-29
[14] = tested on: LOX IMVI
[15] = tested on: IGROV-1
[16] = tested on: MCF7
[17] = tested on: SW-620
[18] = tested on: SF-268
[19] = tested on: HCC 2998
[20] = tested on: HOP-62

| SMILES | GI50 [1] | GI50 [2] | GI50 [3] | GI50 [4] | GI50 [5] | GI50 [6] | GI50 [7] | GI50 [8] | GI50 [9] | GI50 [10] | GI50 [11] | GI50 [12] | GI50 [13] | GI50 [14] | GI50 [15] | GI50 [16] | GI50 [17] | GI50 [18] | GI50 [19] | GI50 [20] |
| --- | --- | --- | --- | --- | --- | --- | --- | --- | --- | --- | --- | --- | --- | --- | --- | --- | --- | --- | --- | --- |
| CN(CCCCN(C)CCc1ccc(Cl)c(Cl)c1)CCCCN1CCCC1 | 2.26 µM (inactive) | 1.63 µM (inactive) | 2.26 µM (inactive) | 1.48 µM (inactive) | 3.23 µM (inactive) | 2.36 µM (inactive) | 1.98 µM (inactive) | 0.649 µM (active) | 2.18 µM (inactive) | 0.977 µM (active) | 0.705 µM (active) | 0.877 µM (active) | 0.494 µM (active) | 0.912 µM (active) | 2.2 µM (inactive) | 1.46 µM (inactive) | 1.21 µM (inactive) | 1.46 µM (inactive) | 0.195 µM (active) | 1.83 µM (inactive) |
| Nc1ccc(-c2nc3cc(F)ccc3s2)cc1CO | 0.0219 µM (active) | 23.9 µM (inactive) | 27.1 µM (inactive) | 3.04 µM (inactive) | 53.6 µM (inactive) | 60.8 µM (inactive) | 32.7 µM (inactive) | > 100 µM (inactive) | 16.7 µM (inactive) | 41.7 µM (inactive) | > 100 µM (inactive) | > 100 µM (inactive) | > 100 µM (inactive) | 62.7 µM (inactive) | < 0.01 µM (active) | < 0.01 µM (active) | > 100 µM (inactive) | 23.8 µM (inactive) | 0.313 µM (active) | 17.5 µM (inactive) |
| CCCCCCCCCCCCCCCCCCNc1nc(=O)n(C2CC(O)C(COP(=O)(O)O)O2)cc1F (stereo not given) | 38.9 µM (inactive) | > 100 µM (inactive) | > 100 µM (inactive) | 35.5 µM (inactive) | > 35.6 µM (inactive) | > 100 µM (inactive) | > 95.7 µM (inactive) | > 63.2 µM (inactive) | > 100 µM (inactive) | > 100 µM (inactive) | > 72.8 µM (inactive) | > 100 µM (inactive) | > 100 µM (inactive) | 58.9 µM (inactive) | > 74.8 µM (inactive) | 16.9 µM (inactive) | > 100 µM (inactive) | 49.4 µM (inactive) | 15 µM (inactive) | 81.7 µM (inactive) |
| CCOC1CN=C(Nc2cccc3ccccc23)S1 (stereo not given) | > 10 µM (inactive) | > 10 µM (inactive) | > 10 µM (inactive) | > 10 µM (inactive) | > 10 µM (inactive) | > 10 µM (inactive) | > 10 µM (inactive) | > 10 µM (inactive) | > 10 µM (inactive) | > 10 µM (inactive) | > 10 µM (inactive) | > 10 µM (inactive) | > 10 µM (inactive) | > 10 µM (inactive) | > 10 µM (inactive) | > 10 µM (inactive) | > 10 µM (inactive) | > 10 µM (inactive) | > 10 µM (inactive) | > 10 µM (inactive) |
| O=[N+]([O-])/C(C(Cl)=C(Cl)Cl)=C(\N1CCCCC1)n1cncn1 | 18.3 µM (inactive) | 18 µM (inactive) | 17.7 µM (inactive) | 26.2 µM (inactive) | 20.1 µM (inactive) | 16.2 µM (inactive) | 17.5 µM (inactive) | 19.1 µM (inactive) | 17.6 µM (inactive) | 15.6 µM (inactive) | 19.5 µM (inactive) | > 46 µM (inactive) | 17.7 µM (inactive) | 15.1 µM (inactive) | 9.08 µM (inactive) | 14.9 µM (inactive) | 15.8 µM (inactive) | 12.9 µM (inactive) | 20 µM (inactive) | 19.6 µM (inactive) |
| C/C(=N\NC(=S)N1CCCCC1)c1nc2cccnc2[nH]1 | 8.53 µM (inactive) | 22 µM (inactive) | 15.7 µM (inactive) | 4.03 µM (inactive) | 3.83 µM (inactive) | 9.66 µM (inactive) | 19.7 µM (inactive) | 4.33 µM (inactive) | 41.6 µM (inactive) | 12.9 µM (inactive) | 9.02 µM (inactive) | 6.9 µM (inactive) | 4.3 µM (inactive) | 7.83 µM (inactive) | 21 µM (inactive) | 3.67 µM (inactive) | 6.38 µM (inactive) | 5.51 µM (inactive) | 20.2 µM (inactive) | 9.62 µM (inactive) |
| CC(=O)N1CCN(C23OC4(N5CCN(C(C)=O)CC5)C5C6CC(C7C6C4C72)C53)CC1 (stereo not given) | > 100 µM (inactive) | > 100 µM (inactive) | > 100 µM (inactive) | > 100 µM (inactive) | > 100 µM (inactive) | > 100 µM (inactive) | > 100 µM (inactive) | > 100 µM (inactive) | > 100 µM (inactive) | > 100 µM (inactive) | > 100 µM (inactive) | > 100 µM (inactive) | > 100 µM (inactive) | > 100 µM (inactive) | > 100 µM (inactive) | > 100 µM (inactive) | > 100 µM (inactive) | > 100 µM (inactive) | > 100 µM (inactive) | > 100 µM (inactive) |
